Data on 10 compounds can be found in ChEMBL document CHEMBL1201862, “PubChem BioAssay data set” (2004).

Test systems include HOP-92; DU-145; NCI-H226; SF-268; SK-MEL-28; MDA-MB-231; MOLT-4; NCI-H23; UO-31; CCRF-CEM; SN12C; OVCAR-4; SK-OV-3; SK-MEL-2; TK-10; COLO 205; RPMI-8226; SW-620; K562; OVCAR-3.
Common to all, as to test: NCI anticancer screen, dose series, 48 h

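Briefly, cells in 96-well plates were exposed to five compound concentrations for 48 h, and endpoints were estimated by linear interpolation. Abbreviation: GI50, concentration required for 50% inhibition of growth.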 The source made the active and inactive calls. Rule as the data show it: active = GI50 up to about 1.1 µM and inactive = higher.

Turning to `CC1(O)CC(=O)c2c(cc3ccc(-c4c5c(c(O)c6c(O)cccc46)C(=O)CC(C)(O)C5)c(O)c3c2O)C1` (stereo not given), the GI50 was 0.242 µM (active) in the test with HOP-92; 0.33 µM (active) in the test on DU-145; 0.448 µM (active) in the test with NCI-H226; 0.194 µM (active) in the test on SF-268; 0.326 µM (active) with SK-MEL-28; 0.311 µM (active) in the test on MDA-MB-231. Also, the GI50 was 0.422 µM (active) with MOLT-4; 0.0574 µM (active) in the test on NCI-H23; 0.212 µM (active) with UO-31; 0.38 µM (active) in the test with CCRF-CEM; 1.39 µM (inactive) in the test with SN12C; 0.27 µM (active) in the test with OVCAR-4. For the same compound, the GI50 in the test on SK-OV-3 is 2.01 µM (inactive); in the test on SK-MEL-2, 0.271 µM (active); with TK-10, 0.767 µM (active); in the test with COLO 205, 0.0442 µM (active); in the test on RPMI-8226, 0.0509 µM (active); with SW-620, 0.468 µM (active). Moreover, the GI50 was 0.298 µM (active) in the test with K562 and 0.0953 µM (active) with OVCAR-3.
As to `N=C(N)NS(=O)(=O)c1ccc(NC(=O)c2ccc3nc4ccccc4c(Nc4ccc(S(N)(=O)=O)cc4)c3c2)cc1`, the GI50 in the test with HOP-92, with DU-145, in the test with NCI-H226, in the test with SF-268, with SK-MEL-28 and in the test on MDA-MB-231 was > 100 µM (inactive) in each case. Further, the GI50 in the test on MOLT-4, with NCI-H23, in the test on UO-31, with CCRF-CEM, with SN12C and in the test on OVCAR-4 was > 100 µM (inactive) throughout. The GI50 in the test on SK-OV-3, with SK-MEL-2, in the test with TK-10, with COLO 205, in the test with RPMI-8226 and in the test on SW-620 was > 100 µM (inactive) each time. The GI50 with K562 and in the test on OVCAR-3 was > 100 µM (inactive) in each case.
Turning to `CCNc1cc2c3c(c1)CCCN3CCC2`, the GI50 in the test on HOP-92 is 12.6 µM (inactive); in the test with DU-145, 28.1 µM (inactive); in the test on NCI-H226 it was 20.4 µM (inactive); with SF-268 it was 16.9 µM (inactive); in the test on SK-MEL-28, 31.3 µM (inactive); with MDA-MB-231, 6.93 µM (inactive). Further, the GI50 is 16.9 µM (inactive) in the test on MOLT-4; 6.31 µM (inactive) in the test with NCI-H23; 41.9 µM (inactive) in the test on UO-31; 2.38 µM (inactive) in the test with CCRF-CEM; 2.87 µM (inactive) in the test on SN12C; 13 µM (inactive) with OVCAR-4. Also, the GI50 in the test on SK-OV-3 is 20 µM (inactive); in the test with SK-MEL-2 it was 15.3 µM (inactive); in the test with TK-10 it was 31.8 µM (inactive); in the test with COLO 205, 12.1 µM (inactive); in the test with RPMI-8226, 4.46 µM (inactive); with SW-620, 21.3 µM (inactive). Further, the values for the GI50 in the test with K562 and with OVCAR-3 were 4.01 µM (inactive) and 2.32 µM (inactive), respectively.
For the compound `CCCC(CCC)C(=O)O` [VALPROIC ACID], the GI50 in the test on HOP-92 was 9380 µM (inactive); in the test on DU-145 it was 10200 µM (inactive); in the test on NCI-H226 it was > 100 µM (inactive); in the test with SF-268, 2140 µM (inactive); in the test with SK-MEL-28, > 100 µM (inactive); in the test with MDA-MB-231, 14700 µM (inactive). Also, the GI50 in the test on MOLT-4 was 11200 µM (inactive); in the test on NCI-H23 it was > 100 µM (inactive); in the test on UO-31, 6280 µM (inactive); with CCRF-CEM, 14800 µM (inactive); in the test with SN12C, > 100 µM (inactive); with OVCAR-4, 3720 µM (inactive). For the same compound, the GI50 in the test with SK-OV-3 was > 100 µM (inactive); in the test on SK-MEL-2, 8000 µM (inactive); in the test on TK-10, 8240 µM (inactive); with COLO 205 it was 4530 µM (inactive); in the test with RPMI-8226, 4070 µM (inactive); in the test on SW-620, 8530 µM (inactive). The GI50 is 6810 µM (inactive) in the test on K562 and 12900 µM (inactive) in the test on OVCAR-3.
Consider `Cc1cc(C)c2c(=O)cc(-c3ccccc3)[nH]c2c1`, for which the GI50 is 19.1 µM (inactive) in the test on HOP-92; 4.44 µM (inactive) with DU-145; 9.66 µM (inactive) in the test with NCI-H226; 7.82 µM (inactive) with SF-268; 2.52 µM (inactive) in the test with SK-MEL-28; 8.22 µM (inactive) with MDA-MB-231. The GI50 with MOLT-4 was 2.96 µM (inactive); with NCI-H23, 2.66 µM (inactive); in the test on UO-31, 9.46 µM (inactive); in the test on CCRF-CEM, 1.49 µM (inactive); in the test with SN12C it was 5.25 µM (inactive); in the test with OVCAR-4, 9.71 µM (inactive). The GI50 in the test on SK-OV-3 was 2.52 µM (inactive); in the test with SK-MEL-2 it was 8.17 µM (inactive); in the test with TK-10 it was 7.05 µM (inactive); with COLO 205 it was 1.17 µM (inactive); in the test on RPMI-8226, 2.02 µM (inactive); with SW-620 it was 0.738 µM (active). The results for the GI50 in the test with K562 and in the test with OVCAR-3 were 0.57 µM (active) and 3.47 µM (inactive), respectively.
Take `CC[C@@]1(O)C(=O)OCc2c1cc1n(c2=O)Cc2c-1nc1ccccc1c2/C=N\NC(=O)C(N)CC(C)C` (stereo not given in full): the GI50 in the test with HOP-92 was 0.0815 µM (active); with DU-145, < 0.01 µM (active); with NCI-H226 it was 0.0277 µM (active); in the test with SF-268, < 0.01 µM (active); in the test with SK-MEL-28, 0.605 µM (active); with MDA-MB-231, 1.25 µM (inactive). The GI50 in the test on MOLT-4 is < 0.01 µM (active); in the test on NCI-H23, < 0.01 µM (active); with UO-31, < 0.0106 µM (active); in the test on CCRF-CEM, < 0.01 µM (active); in the test on SN12C, < 0.01 µM (active); in the test on OVCAR-4, 0.44 µM (active). Besides, the GI50 in the test on SK-OV-3 was < 0.0212 µM (active); in the test on SK-MEL-2, 0.6 µM (active); in the test with TK-10, 3.12 µM (inactive); with COLO 205, 0.708 µM (active); in the test with RPMI-8226 it was 0.024 µM (active); with SW-620, 0.0887 µM (active). In addition, the GI50 was 0.0267 µM (active) in the test on K562 and 0.297 µM (active) with OVCAR-3.
Regarding `CC1(C)N=C(/C=N/O)C(C)(C)N1O`, the GI50 in the test on HOP-92, with DU-145, with NCI-H226, with SF-268, in the test on SK-MEL-28 and with MDA-MB-231 was > 100 µM (inactive) each time. Also, the GI50 is > 100 µM (inactive) in the test on MOLT-4; > 100 µM (inactive) in the test with NCI-H23; 81.3 µM (inactive) in the test with UO-31; > 100 µM (inactive) with CCRF-CEM; > 100 µM (inactive) with SN12C; > 100 µM (inactive) in the test with OVCAR-4. For the same compound, the GI50 with SK-OV-3, in the test with SK-MEL-2, with TK-10, in the test with COLO 205, in the test with RPMI-8226 and in the test with SW-620 was > 100 µM (inactive) throughout. Further, the GI50 in the test on K562 and in the test on OVCAR-3 was > 100 µM (inactive) throughout.
On to `O=S(=O)(O)c1ccc(/N=N/c2c(O)ccc3ccccc23)cc1`, for which the GI50 was > 69.8 µM (inactive) in the test on HOP-92; > 100 µM (inactive) with DU-145; 98.2 µM (inactive) in the test with NCI-H226; > 100 µM (inactive) in the test with SF-268; > 100 µM (inactive) with SK-MEL-28; > 100 µM (inactive) in the test with MDA-MB-231. Further, the GI50 in the test on MOLT-4, with NCI-H23, in the test with UO-31, with CCRF-CEM, with SN12C and with OVCAR-4 was > 100 µM (inactive) in each case. The GI50 in the test on SK-OV-3, in the test on SK-MEL-2, in the test with TK-10, in the test with COLO 205, in the test with RPMI-8226 and with SW-620 was > 100 µM (inactive) each time. The GI50 with K562 and with OVCAR-3 was > 100 µM (inactive) throughout.
Regarding `O=C1c2cccc([N+](=O)[O-])c2C(=O)N1Cc1ccccc1`, the GI50 in the test with HOP-92, with DU-145, in the test on NCI-H226, in the test on SF-268, in the test with SK-MEL-28 and with MDA-MB-231 was > 100 µM (inactive) throughout. The GI50 with MOLT-4, in the test on NCI-H23, in the test with UO-31, in the test with CCRF-CEM, in the test with SN12C and in the test on OVCAR-4 was > 100 µM (inactive) throughout. Further, the GI50 in the test with SK-OV-3, with SK-MEL-2, with TK-10, in the test with COLO 205, in the test on RPMI-8226 and in the test on SW-620 was > 100 µM (inactive) in each case. Moreover, the GI50 in the test on K562 and in the test with OVCAR-3 was > 100 µM (inactive) throughout.
Turning to `CC(CCOc1c2ccoc2cc2oc(=O)ccc12)C1=CC(=O)C(C)(C)O1` (stereo not given), the GI50 in the test with HOP-92, in the test on DU-145, in the test on NCI-H226, in the test on SF-268, in the test with SK-MEL-28 and in the test with MDA-MB-231 was > 100 µM (inactive) throughout. For the same compound, the GI50 in the test on MOLT-4 was > 100 µM (inactive); with NCI-H23 it was > 100 µM (inactive); in the test with UO-31 it was > 100 µM (inactive); with CCRF-CEM, > 100 µM (inactive); with SN12C, > 100 µM (inactive); in the test on OVCAR-4, 42 µM (inactive). For the same compound, the GI50 with SK-OV-3, in the test on SK-MEL-2, in the test with TK-10, with COLO 205, in the test with RPMI-8226 and with SW-620 was > 100 µM (inactive) in each case. Besides, the GI50 in the test with K562 and with OVCAR-3 was > 100 µM (inactive) in each case.
